Reference: PMC11662536, “Targeting SARS-CoV-2 main protease: a comprehensive approach using advanced virtual screening, molecular dynamics, and in vitro validation” (Virology Journal, 2024)
Where “and” joins values, the source holds several entries; their conditions need not be identical. Equal values may be shown once.

The molecules below were run against SARS-CoV-2_WT Mpro (Severe acute respiratory syndrome coronavirus 2, UniProt P0DTD1) (assay: biochemical). Details: 25 nM SARS-2 Mpro, 25 μM substrate, 30 min pre-incubation.

Structure (SMILES)	IC50
Oc1ccc(-c2c3oc4c(O)c(O)ccc4c3nc3c2c(O)nn3C2CCCCC2)cc1Cl [ID35, Oc1ccc(-c2c3oc4c(O)c(O)ccc4c3nc3c2c(O)nn3C2CCCCC2)cc1Cl]	< 100 µM and 59.4 µM
COc1cc(-c2c3oc4cc(O)ccc4c3nc3c2c(O)nn3C2CCCCC2)cc(O)c1O [ID32, COc1cc(-c2c3oc4cc(O)ccc4c3nc3c2c(O)nn3C2CCCCC2)cc(O)c1O]	< 100 µM
Oc1ccc2c(c1)oc1c(-c3ccc(O)c(O)c3)c3c(O)nn(C4CCCCC4)c3nc12 [ID11, Oc1ccc2c(c1)oc1c(-c3ccc(O)c(O)c3)c3c(O)nn(C4CCCCC4)c3nc12]	< 100 µM and 54.4 µM
Cc1c(O)ccc2c1oc1c(-c3ccc(O)c(O)c3)c3c(O)nn(C4CCCCC4)c3nc12 [ID20, Cc1c(O)ccc2c1oc1c(-c3ccc(O)c(O)c3)c3c(O)nn(C4CCCCC4)c3nc12]	< 100 µM
Oc1ccc(-c2c3oc4c(O)c(O)ccc4c3nc3c2c(O)nn3C2CCCCCC2)cc1O [ID14, Oc1ccc(-c2c3oc4c(O)c(O)ccc4c3nc3c2c(O)nn3C2CCCCCC2)cc1O]	< 100 µM
Oc1ccc(-c2c3oc4cc(O)ccc4c3nc3c2c(O)nn3C2CCCCCC2)cc1 [ID18, Oc1ccc(-c2c3oc4cc(O)ccc4c3nc3c2c(O)nn3C2CCCCCC2)cc1]	< 100 µM
COc1cc(-c2c3oc4cc(O)ccc4c3nc3c2c(O)nn3C2CCCCCCC2)cc(O)c1O [ID41, COc1cc(-c2c3oc4cc(O)ccc4c3nc3c2c(O)nn3C2CCCCCCC2)cc(O)c1O]	< 100 µM
